Assay results from patent US8951796B2, “Methods and compositions for expanding and stabilizing natural regulatory T cells” (University of Southern California, priority 2010, dated 2015).

Experiments:
human nTregs = assay: Expansion and FOXP3 expression of human nTregs from peripheral blood; assay type: cell-based
From the text: In addition to mouse nTregs, atRA also stabilized FOXP3 expression of human nTregs. nTregs were isolated from human peripheral blood and expanded with anti-CD3/28 coated beads with IL-2 in the presence or absence of atRA. […] By ten days of culture control FOXP3+ cells increased 5 fold, but atRA treated nTregs increased 20 fold.

CD4+CD25+ nTregs [1] = assay: Th17 conversion of nTregs stimulated with anti-CD3/CD28 and IL-6 (intracellular IL-17 FACS, soluble IL-17A ELISA); assay type: cell-based, DBA/1 mice
Procedure: (§1) To activate nTregs, CD25^+ or GFP^+ cells were stimulated with anti-CD3/CD28 coated beads (1:5, one bead to five cells), rmIL-2 (100 U/ml) (R&D) with DMSO or all-trans retinoic acid (atRA, 0.05 μM) for 3 days. To generate Th17 cells, these activated nTregs were stimulated with immobilized anti-CD3 (1 μg/ml), soluble anti-CD28 (1 μg/ml), anti-IL-4 (10 μg/ml) (BD biosciences), anti-IFN-γ and IL-6 (10 ng/ml) (BD Pharmingen) for 3 days.
Because atRA was dissolved in DMSO, similar volumes of DMSO was added to the cultures to exclude the possibility that atRA has a non-specific toxic effect on T cells (FIGS. 1A and B). For the data in FIGS. 1A and B, CD4^+CD25^+ cells were stimulated with immobilized anti-CD3 (1 μg/ml), soluble anti-CD28 (1 μg/ml) and IL-6 (10 ng/ml) with or without atRA (0.05 μM). 3 days later, these cells were restimulated with PMA (0.25 μg/ml) and ionomycin (0.25 μg/ml) for 5 h and brefeldin A (5 μg/ml) for 4 h, and then collected for intracellular IL-17 and IFN-γ staining. Values indicate mean±SEM of four separate experiments and representative of these experiments
(§2) In FIG. 1C, soluble IL-17A in the culture supernatants was analyzed by an ELISA. The horizontal line indicates the levels of IL-17A in the supernatant of naïve TCR-stimulated CD4^+ cells in the presence of IL-6 and TGF-β. E, the suppressive activities of nTregs in the presence of IL-6 and/or atRA were determined by the inhibition of tritiated thymidine ([^3H]-TdR) uptake.
For the experiments in FIG. 2D, CD4^+CD25^+ cells were activated as in FIG. 2A and re-stimulated with IL-6 as for the experiments in FIG. 1A described above. Intracellular IL-17 and IFN-γ expression was determined by FACS staining. Results are representative of three independent experiments. IL-17 and IFN-γ secreted into the supernatants was consistent with intracellular cytokine expression (data not shown).

T responder cells = assay: Suppressor assay: inhibition of [3H]-TdR uptake of T responder cells by nTregs; assay type: cell-based, DBA/1 mice
Procedure: To measure suppressive activities, responder T cells were stimulated with soluble anti-CD3 (0.025 μg/ml) and irradiated APC (1:1), nTregs pretreated with at-RA or without atRA were added to cultures at a ratio of 1:4 (one nTreg to four responder cells). After 72-hour cultures, triplicate wells were pulsed with 1 μCi of [^3H]-TdR for the final 16 hours. Cell proliferation was determined by [^3H]-TdR incorporation using scintillation counting.
as §2
In FIG. 2F, the suppressive activities of atRA or DMSO treated nTregs in the absence or presence of IL-6 in vitro was determined by similar methods as in FIG. 1E. P values were calculated by Student's test and indicate significant differences between atRA and control treated nTregs (P<0.05).

CD4+CD25+ nTregs [2] = assay: FOXP3 expression of activated/expanded nTregs by FACS intracellular staining; assay type: cell-based, DBA/1 mice
Procedure: as §1
For the experiments in FIG. 1D, nTregs were activated with anti-CD3/CD28 coated beads in the presence of the atRA solvent (DMSO) or atRA (0.05 μM) with or without IL-6 (10 ng/ml) for 3 days and Foxp3 expression was determined and compared to freshly isolated CD4^+CD25^+ cells by FACS intracellular staining.
(§3) For the data in FIGS. 2A and B, CD4^+CD25^+ cells were stimulated with anti-CD3/CD28 coated beads (1:5), rmIL-2 (100 U/ml) with DMSO or atRA (0.05 μM) for 7 days and the FOXP3 expression (A) and total Foxp3^+ cell numbers (B) were determined.

nTregs = assay: Expansion of nTregs with anti-CD3/28 coated beads and IL-2; assay type: cell-based, DBA/1 mice; conditions: one week, IL-2, with atRA
Procedure: as §1, §3

IL-6 Rα mRNA, p-Stat3 = conditions: cited from earlier work
[3] = system: IL-6R (CD126, CD130), STAT3, ROR-γt in nTregs; assay: IL-6 receptor expression and signaling in nTregs by flow cytometry; assay type: cell-based, mouse
Procedure: One potential mechanism by which atRA treatment stabilizes phenotype of nTregs, particularly suppressive function, may be through downregulation of the expression of IL-6R and IL-6R signaling. To investigate this potential mechanism, CD4^+CD25^+ cells were stimulated with anti-CD3/CD28 coated beads and IL-2 with or without atRA for 4 days. […] CD126 (IL-6Rα chain) expression was determined by flow cytometry. […] When atRA-treated nTregs were restimulated with IL-6, the decrease in IL-6 signaling was accompanied by a decrease of expression of ROR-γt (FIG. 4B), the crucial transcription factor required for Th17 cell differentiation. This finding is in agreement with reports that the combination of IL-2 and TGF-β has dramatic effects on both IL-6 receptor expression and signaling on nTreg cells. […] The p values indicate significant differences between DMSO treated and atRA treated nTregs (p<0.05, t test).

[4] = system: nTregs isolated from CIA mice; assay: nTregs isolated from CIA mice: suppressive activity by proliferation of T responder cells; assay type: cell-based, mouse; conditions: anti-CD3 1 μg/ml, IL-6 10 ng/ml, atRA 0.05 μM, 7 days
Procedure: For the experiments in FIG. 7A, nTregs isolated from CIA mice were stimulated with immobilized anti-CD3 (1 μg/ml) and IL-6 (10 ng/ml) with and without atRA (0.05 μM) for 7 days. Phenotypic stability was measured by FOXP3 expression and suppressive activity was determined by the proliferation of T responder cells. CMP indicates the value of T responder cells. Values in FIG. 7A indicate the mean±SEM of three independent experiments. In the experiments in FIG. 7B, nTregs from CIA mice were expanded with anti-CD3/CD28 beads (1:5) and IL-2 (100 U/ml)±atRA (0.05 μM) for 4 days. Mice with established CIA were injected intravenously with 1×10^6 atRA treated nTregs, DMSO treated nTregs or PBS (control group) (n=6/group). The mice were examined every five days after injection and the clinical scores are indicated.

[5] = anti-CD3/CD28 beads, IL-2, atRA, 4 days

## CC1=C(/C=C/C(C)=C/C=C/C(C)=C/C(=O)O)C(C)(C)CCC1 [atRA, all-trans retinoic acid]
Human nTregs; human nTregs
  total number of FOXP3+ cells: significantly increased
Human nTregs; human nTregs proliferating in culture, some cultures with IL-1 and/or IL-6
  percentage of nTregs expressing FOXP3: decreased significantly less than control nTregs
Human nTregs; human nTregs, ten days of culture
  increase of FOXP3+ cells: 20 fold
CD4+CD25+ nTregs [1]; addition of atRA
  activation and proliferation status of nTregs: did not affect
CD4+CD25+ nTregs [1]; atRA 0.05 μM added to cultures with IL-6 (10 ng/ml), 3 days
  intracellular IL-17 production: completely blocked
CD4+CD25+ nTregs [1]; atRA 0.05 μM added to cultures with IL-6 (10 ng/ml), ELISA of supernatants
  soluble IL-17 production: completely blocked
CD4+CD25+ nTregs [1]; nTregs expanded with atRA, restimulated with anti-CD3/28 beads with IL-6
  Th17 and Th1 conversion of expanded nTregs: completely resistant
T responder cells; atRA added to the cultures with IL-6
  suppressive activity of nTregs in the presence of IL-6: maintained the suppressive activity
T responder cells; in the presence of IL-6, in the absence of nTregs
  T cell response with atRA alone: did not suppress
T responder cells; nTregs expanded in the presence of atRA, washed
  suppressive function after restimulation with IL-6: completely intact
T responder cells; vs nTregs expanded without atRA
  suppressive activities of nTregs expanded with atRA: even superior
CD4+CD25+ nTregs [2]; atRA 0.05 μM, IL-2 100 U/ml, 7 days
  FOXP3 expressed by nTregs expanded with atRA: remained stable
CD4+CD25+ nTregs [2]; atRA 0.05 μM, IL-6 10 ng/ml, 3 days, vs DMSO cultures
  down-regulation of FOXP3 expression in the presence of IL-6: almost completely prevented
CD4+CD25+ nTregs [2]; nTregs previously treated with atRA
  FOXP3 expression following re-stimulation with IL-6: maintained FOXP3 expression
nTregs
  expansion of nTregs: eight-fold
IL-6 Rα mRNA, p-Stat3
  levels of p-Stat3 expression induced by IL-6 plus TGF-β: decreases
  up-regulation of IL-6 Rα mRNA induced by TGF-β: strongly inhibits
[3]; addition of atRA
  Stat-3 activation in nTregs: significantly decreased
[3]; [5]
  CD126 (IL-6Rα chain) expression in activated nTregs: markedly decreased
  IL-6 Rβ (CD130) expression: significantly decreased
[3]; atRA-treated nTregs restimulated with IL-6
  expression of ROR-γt: decrease
[4]
  suppressive activity of nTregs from CIA mice: show suppressive activity
